The values below come from patent US20220152174A1, “Cancer Antigen Peptide” (National University Corporation Asahikawa Medical University, priority 2018, published 2022).

Assay [1] concerns lung cancer cell line A549. Nature of the assay: DNA microarray gene expression after 5-AZA treatment. The assay is classed as cell-based, human. The protocol: Cells of lung cancer cell line A549 were treated with 5-AZA (10 μM) for 3 days and the RNAs were extracted. Gene expression levels were measured using DNA microarrays. The criteria for identifying the candidate genes were that the expression level was close to 0 in the non-treated cells and increased by 30 times or more in the 5-AZA-treated cells. Some candidate genes were found, including SYCP3 (untreated: 3.0, 5-AZA treated: 340.9, fold-change: […]), SPESP1 (untreated: 1.7, 5-AZA treated: 65.3, fold-change: […]), and DAZL1 (untreated: 2.8, 5-AZA treated: 341.3, fold-change: 123.6).

Assay [2] concerns SYCP3 gene expression in EBC1, Lu65, HT-29, SAS. Nature of the assay: SYCP3 gene expression by real-time PCR in 5-AZA-treated cancer cell lines. The assay is classed as cell-based, human. The settings on record: 5-AZA 10 μM, 3 days; all tested cell lines (EBC1, Lu65, HT-29, SAS). Here is the method:
(§1) Cells of cancer cell lines (lung cancer cell line EBC1, lung cancer cell line Lu65, colon cancer cell line HT-29, and oral squamous cell carcinoma cell line SAS) were cultured in the complete medium (RPMI 1640 medium (nacalai tesque 30264-56) with 100 U/mL penicillin (Meiji Seika) and […] streptomycin (Meiji Seika), added with 10% fetal bovine serum (biosera FB-1365/500) which had been […] at 56° C. for 30 minutes) containing 5-AZA (10 μM) at the density of 2×10^5 cells/well in 6-well plates (Falcon 353046) in an incubator (SANYO) set at 37° C., 5% CO2, and 95% humidity for 3 days. The same incubator was used for all cell cultures in the following tests. The cells were washed with 2 mL of a phosphate-buffered saline (PBS, KANTO CHEMICAL CO., INC. 73111). The RNAs were extracted with RNeasy Mini Kit (Qiagen 74106), and the cDNAs were synthesized by using PrimeScript 1st strand cDNA Synthesis Kit (Takara Bio 6110A), and the gene expression levels of GAPDH (Applied Biosystems Hs02786624_g1) and SYCP3 (Applied Biosystems Hs00538146_m1) were analyzed by real-time PCR using LightCycler480 (Roche). Each step was carried out in accordance with the description of the package inserts attached to each reagent.
In general terms: In qPCR the cycle at which signal appears reflects the starting amount.

Assay [3] concerns SPESP1 gene expression in SW839, 5637, LC2/Ad, EBC1, HT-29, Lu65, SAS. Put plainly: SPESP1 gene expression by real-time PCR in 5-AZA-treated cancer cell lines. The format is cell-based, human. As to conditions: all tested cell lines.
Protocol: Cells of cancer cell lines (lung cancer cell line EBC1, lung cancer cell line Lu65, colon cancer cell line HT-29, and oral squamous cell carcinoma cell line SAS) were cultured in the complete medium (RPMI 1640 medium (nacalai tesque 30264-56) with 100 U/mL penicillin (Meiji Seika) and 100 μg/L streptomycin (Meiji Seika), added with 10% fetal bovine serum (biosera FB-1365/500) which had been immobilized at 56° C. for 30 minutes) containing 5-AZA (10 μM) at the density of 2×10^5 cells/well in 6-well plates (Falcon 353046) in an incubator (SANYO) set at 37° C., 5% CO2, and 95% humidity for 3 days. […] The RNAs were extracted with RNeasy Mini Kit (Qiagen 74106), and the cDNAs were synthesized by using PrimeScript 1st strand cDNA Synthesis Kit (Takara Bio 6110A), and the gene expression levels of GAPDH (Applied Biosystems Hs02786624_g1) and SYCP3 (Applied Biosystems Hs00538146_m1) were analyzed by real-time PCR using LightCycler480 (Roche). […]
Similarly, cells of renal cancer cell line SW839, bladder cancer cell line 5637, lung adenocarcinoma cell line LC2/Ad, lung cancer cell line EBC1, colon cancer cell line HT-29, lung cancer cell line Lu65, and oral squamous cell carcinoma cell line SAS were cultured in the presence of 5-AZA, and the gene expression levels of GAPDH and SPESP1 (Applied Biosystems Hs00377364_m1) were analyzed.
The subject of assay [4] is mouse DAZL1 gene expression in WEHI-3. Nature of the assay: DAZL1 gene expression by real-time PCR in 5-AZA-treated WEHI-3. The format is cell-based. Here is the method:
as §1, with “Each step was carried out in accordance with the description of the package inserts attached to each reagent.” left out
Similarly, cells of mouse leukemia cell line WEHI-3 (Balb/c) was cultured in the presence of 5-AZA, and the gene expression levels of mouse GAPDH (Applied Biosystems Mm99999915_g1) and mouse DAZL1 (Applied Biosystems Mm01273546_m1) were analyzed.

Assay [5] has as its system SYCP3 protein in EBC1 and Lu65. Nature of the assay: SYCP3 protein by Western blotting. The format is cell-based, human. The settings on record: EBC1 and Lu65 treated with 5-AZA. The protocol: The amount of SYCP3 protein in EBC1 and Lu65 treated with 5-AZA was analyzed by Western blotting. An anti-SYCP3 antibody (Mouse anti-SCP3, BD Bioscience 611230) diluted at 1:200 was used as the primary antibody. Upregulation of SYCP3 by the 5-AZA treatment was also observed at the protein level.
A general note: Immunoblotting shows a protein as a band on a membrane.

Assay [6] concerns DAZL1 protein in E0771 and C1498. Put plainly: DAZL1 protein by Western blotting in mouse cancer cell lines. The format is cell-based. The settings on record: 5-AZA 10 μM. The protocol:
Cells of mouse cancer cell lines (E0771:C57BL/6 mouse breast cancer cell line and C1498:C57BL/6 mouse acute myeloid leukemia cell line) were treated with 5-AZA (10 μM), and the amount of DAZL1 protein was analyzed by Western blotting.

Assay [7] has as its system SYCP3 gene expression in HT-29 or WiDr tumor tissues. Put plainly: SYCP3 gene expression in tumor tissues of nude mice given 5-AZA. The format is in vivo, mouse. As to conditions: 5-AZA 1.6 μg/g i.p. Days 5, 10, 15, 20; tumors Day 25; vs PBS alone. Here is the method: To the control mice, 200 μL of PBS was intraperitoneally administered.
The subject of assay [8] is SPESP1 gene expression in EBC1 or Lu65 tumor tissues. Put plainly: SPESP1 gene expression in tumor tissues of nude mice given 5-AZA. The format is in vivo, mouse. As to conditions: 5-AZA i.p.; tumors Day 25; vs PBS alone. Here is the method: Similarly, nude mice were intradermally injected with cells of lung cancer cell line EBC1 (5×10^5 cells) or Lu65 (5×10^5 cells), and 5-AZA or PBS (control) was intraperitoneally administered. The RNAs were extracted from the tumor tissues collected on Day 25, and the gene expression levels of SPESP1 and GAPDH were analyzed by real-time PCR.

The test system of assay [9] is lung cancer cell line Lu65. Put plainly: Tumor growth in nude mice bearing Lu65. The assay is classed as in vivo, mouse. The settings on record: BALB/c nude mice, 5-AZA 150 nmol/g i.p. Days 7, 12, 17, 22, Th cells i.v. Days 13, 20, 27. Here is the method: BALB/c nude mice (10 to 14 weeks old, CHARLES RIVER LABORATORIES JAPAN) were intradermally injected with 3×10^6 cells of lung cancer cell line Lu65 using Myjector, and on Days 7, 12, 17, and 22, 200 μL of PBS containing 5-AZA (150 nmol/g of mouse body weight) was intraperitoneally administered using Myjector. To the control mice, 200 μL of PBS was intraperitoneally administered. On Days 13, 20, and 27, 200 μL of SYCP3-specific human Th cells (3 to 5×10^6 cells) were administered by tail vein administration. To the control mice, 200 μL of PBS was administered by tail vein administration. The tumor surface areas were measured over time.

The subject of assay [10] is DR53-positive cancer cell lines (WiDr, Lu65, and Calu1). The settings on record: cancer cells pretreated with 10 μM 5-AZA and 500 U/mL IFN-γ for 3 days; co-culture 24 hours.
Protocol: In order to study the reactivity of SYCP3-A peptide-specific CD4-positive T-cells toward cells of cancer cell lines, DR53-positive cancer cell lines (WiDr, Lu65, and Calu1) were used. The cancer cells were cultured in 6-well culture plates for 3 days using 2 mL of the complete medium containing 10 μM 5-AZA and 500 U/mL IFN-γ (Immunomax-γ for injection 50, Shionogi), which can induce expression of HLA class II molecules on the surfaces of cancer cells. The culture plates were thoroughly washed with PBS, 1 mL of 5 mM EDTA (ethylenediaminetetraacetic acid, nacalai tesque 14347-21) was added to suspend the cells, and the cells were recovered. In the same manner as in Test 8, 1×10^4 cells of each cell line and 5×10^4 CD4-positive T-cells were co-cultured in 96-well flat bottom culture plates using 200 μL of the culture medium for human cells. […] After 24 hours 100 μL of the culture supernatants were collected from each well, and the IFN-γ concentrations were determined using the ELISA kit.
[11] abbreviates: A549, 5-AZA 10 μM, 3 days, DNA microarray.
Where [12] appears, read: A549, 5-AZA treated vs untreated.

Molecules are shown by their SMILES.

Regarding `Nc1ncn([C@H]2C[C@H](O)[C@@H](CO)O2)c(=O)n1` [5-AZA, 5-aza-2′-deoxycytidine], in assay [1] (setting [11]), the “DAZL1 gene expression level, 5-AZA treated” value is reported as 341.3; the “SPESP1 gene expression level, 5-AZA treated” value amounted to 65.3; the “SYCP3 gene expression level, 5-AZA treated” value is 340.9. In addition, in assay [1] (setting [12]), the DAZL1 fold-change stood at 123.6, the SPESP1 fold-change is reported as 38.8 and the SYCP3 fold-change turned out to be 112.3. Also, the “SYCP3 gene expression level” value in assay [2] is reported as “upregulated”. Also, the “SPESP1 gene expression level” value in [3] is listed as “upregulated”. Besides, in assay [4], the “DAZL1 gene expression level” value was “upregulated”. Moreover, the “amount of SYCP3 protein” value in assay [5] was “Upregulation”. The “amount of DAZL1 protein” value in assay [6] is recorded as “upregulated”. Moreover, the “SYCP3 gene expression in tumor tissues” value in assay [7] is listed as “upregulated”. Moreover, the “SPESP1 gene expression in tumor tissues” value in assay [8] was “upregulated”. For the same compound, in assay [9], the “tumor growth (tumor surface area)” value is on record as “No effect”. For the same compound, the “IFN-γ production of SYCP3-A-specific CD4-positive T-cells toward cancer cells” value in assay [10] is recorded as “increased the IFN-γ production”.
